Measurements reported in ChEMBL document CHEMBL1201862, “PubChem BioAssay data set” (2004).
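Test compounds were applied to cells in 96-well plates for 48 hours at 5 doses. GI50 is the concentration that inhibits growth by half.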 Activity calls are given as the source filed them. Rule as the data show it: active = GI50 up to about 1.1 µM and inactive = higher.

Columns and labels:
Test in all cases: NCI anticancer screen, dose series, 48 h
[1] = system: ACHN
[2] = system: BT-549
[3] = system: CCRF-CEM
[4] = system: COLO 205
[5] = system: HCC 2998
[6] = system: HL-60
[7] = system: HOP-92
[8] = system: Hs-578T
[9] = system: IGROV-1
[10] = system: K562
[11] = system: LOX IMVI
[12] = system: MDA-N
[13] = system: MOLT-4
[14] = system: Malme-3M
[15] = system: NCI-H23
[16] = system: NCI/ADR-RES
[17] = system: OVCAR-4
[18] = system: OVCAR-5
[19] = system: SF-295
[20] = system: SR

CN(C)CCNc1ccc2c(=O)n(CCN(C)C)c(=O)n3c4ccc(O)cc4c(=O)c1c23
GI50 [1]: < 0.01 µM (active)
GI50 [2]: 0.292 µM (active)
GI50 [3]: < 0.01 µM (active)
GI50 [4]: 0.0327 µM (active)
GI50 [5]: < 0.01 µM (active)
GI50 [6]: < 0.01 µM (active)
GI50 [7]: < 0.01 µM (active)
GI50 [8]: 0.161 µM (active)
GI50 [9]: 0.0144 µM (active)
GI50 [10]: < 0.01 µM (active)
GI50 [11]: < 0.0105 µM (active)
GI50 [12]: 0.0356 µM (active)
GI50 [13]: < 0.01 µM (active)
GI50 [14]: 0.0569 µM (active)
GI50 [15]: < 0.01 µM (active)
GI50 [16]: 0.546 µM (active)
GI50 [17]: 0.106 µM (active)
GI50 [18]: 0.0775 µM (active)
GI50 [19]: < 0.01 µM (active)
GI50 [20]: < 0.01 µM (active)

Cc1cccc2nc3cccc(C(=O)NCCC[N+](C)(CCCNC(=O)c4cccc5nc6cccc(C)c6nc45)Cc4c([N+](=O)[O-])ncn4C)c3nc12
GI50 [1]: 0.136 µM (active)
GI50 [2]: 41.7 µM (inactive)
GI50 [3]: 47 µM (inactive)
GI50 [4]: 0.705 µM (active)
GI50 [5]: 1.67 µM (inactive)
GI50 [6]: 0.199 µM (active)
GI50 [7]: 23.9 µM (inactive)
GI50 [8]: > 1100 µM (inactive)
GI50 [9]: 11.1 µM (inactive)
GI50 [10]: 25.4 µM (inactive)
GI50 [11]: 0.0908 µM (active)
GI50 [12]: 0.293 µM (active)
GI50 [13]: 0.0396 µM (active)
GI50 [14]: 3.05 µM (inactive)
GI50 [15]: 1.53 µM (inactive)
GI50 [16]: 38.6 µM (inactive)
GI50 [17]: 29 µM (inactive)
GI50 [18]: 1.91 µM (inactive)
GI50 [19]: 1.35 µM (inactive)
GI50 [20]: 12.6 µM (inactive)

COc1cc(OCc2ccc3nc(OC)c(OC)nc3c2)cc(OC)c1OC
GI50 [1]: > 10 µM (inactive)
GI50 [2]: > 3.72 µM (inactive)
GI50 [3]: > 10 µM (inactive)
GI50 [4]: > 10 µM (inactive)
GI50 [5]: > 10 µM (inactive)
GI50 [6]: > 10 µM (inactive)
GI50 [7]: 7.18 µM (inactive)
GI50 [8]: > 10 µM (inactive)
GI50 [9]: > 10 µM (inactive)
GI50 [10]: > 10 µM (inactive)
GI50 [11]: > 10 µM (inactive)
GI50 [12]: > 10 µM (inactive)
GI50 [13]: > 10 µM (inactive)
GI50 [14]: > 10 µM (inactive)
GI50 [15]: > 10 µM (inactive)
GI50 [16]: > 10 µM (inactive)
GI50 [17]: > 8 µM (inactive)
GI50 [18]: > 10 µM (inactive)
GI50 [19]: > 10 µM (inactive)
GI50 [20]: > 10 µM (inactive)

CNC1C(O)CC(OC2C/C=C(\C)C/C(C)=C/C=C/CCC(C)CNC(=O)/C=C/C=C/C2C)OC1C (stereo not given)
GI50 [1]: 1.5 µM (inactive)
GI50 [2]: 1.25 µM (inactive)
GI50 [3]: 0.153 µM (active)
GI50 [4]: 0.202 µM (active)
GI50 [5]: 0.286 µM (active)
GI50 [6]: 0.153 µM (active)
GI50 [7]: 0.451 µM (active)
GI50 [8]: 0.502 µM (active)
GI50 [9]: 1.29 µM (inactive)
GI50 [10]: 0.0995 µM (active)
GI50 [11]: 0.103 µM (active)
GI50 [12]: 0.34 µM (active)
GI50 [13]: 0.161 µM (active)
GI50 [14]: 1.47 µM (inactive)
GI50 [15]: 0.863 µM (active)
GI50 [16]: 0.718 µM (active)
GI50 [17]: 0.303 µM (active)
GI50 [18]: 1.18 µM (inactive)
GI50 [19]: 0.25 µM (active)
GI50 [20]: 0.24 µM (active)

O=Cc1cc2c(o1)C(=O)c1ccccc1C2=O
GI50 [1]: 1.98 µM (inactive)
GI50 [2]: 0.757 µM (active)
GI50 [3]: 2.09 µM (inactive)
GI50 [4]: 1.44 µM (inactive)
GI50 [5]: 1.88 µM (inactive)
GI50 [6]: 0.286 µM (active)
GI50 [7]: 1.83 µM (inactive)
GI50 [8]: 0.251 µM (active)
GI50 [9]: 1.33 µM (inactive)
GI50 [10]: 1.46 µM (inactive)
GI50 [11]: 0.267 µM (active)
GI50 [12]: 0.192 µM (active)
GI50 [13]: 2.06 µM (inactive)
GI50 [14]: 0.153 µM (active)
GI50 [15]: 0.191 µM (active)
GI50 [16]: 1.81 µM (inactive)
GI50 [17]: 1.17 µM (inactive)
GI50 [18]: 1.77 µM (inactive)
GI50 [19]: 0.367 µM (active)
GI50 [20]: 0.459 µM (active)
